Test results taken from patent US10899815B2, “Compositions and methods of using islet neogenesis peptides and analogs thereof” (SHENZHEN HIGHTIDE BIOPHARMACEUTICAL, LTD., priority 2013, dated 2021).

Key:
[1] = Peptide stability in mouse plasma; assay type: in vitro ADME; details: 100 μg/mL, 37° C., LC-MS/MS, FIG. 3 and FIG. 5
Method: (§1) The stability of peptides was also tested in mouse and human plasma. Briefly, a certain amount of peptides and eucatropine powder (positive control) was accurately weighed. Test compounds were dissolved in 50% methanol-water solution and diluted to 20 mg/mL, and eucatropine was dissolved in dimethylsulfoxide (DMSO) and diluted to 10 mM, as a stock solution. Eucatropine stock solution was diluted to 0.2 mM with DMSO as a working solution. A stop reagent was prepared containing 200 ng/mL midazolam and tolbutamide in acetonitrile. A volume of 300 μL of stop solution was added to each well of a 96-well deep-well plate placed on ice beforehand.
(§2) For the stability studies, peptides and eucatropine were spiked into plasma respectively, mixed well, and then 100 μL of each mixture solution was transferred into the pre-cooled stop reagent as 0 time point sample. The remaining mixtures were incubated in a 37° C. water bath with shaking at 100 rpm (n=2). The final incubation concentration was 1 μM for eucatropine and 100 μg/mL for all test compounds.
At desired time points, 100 μl, of incubation mixture was transferred to the stop reagent to precipitate proteins. Samples were vortexed and centrifuged at RCF 5000-g for 10 minutes, and supernatant was transferred to a test plate. The samples were analyzed by LC-MS/MS.
Slope was calculated by plotting the natural logarithm of the percentage or remaining amount of test compounds and time, and T12 was calculated in accordance with the following formula.
For stability in mouse plasma, the incubation time was 0, 5, 15, 30 and 60 min for Peptide 1 and eucatropine, 0, 15, 30, 60, 120, 240 and 480 min for Peptide 12, Peptide 16 and Peptide 29.
In another stability study in mouse plasma, the incubation time was 0, 30, 60 and 120 min for Peptide 2 and eucatropine; 0, 30, 60, 120, 240 and 960 min for Peptide 52 and Peptide 54.

[2] = Peptide stability in human plasma; assay type: in vitro ADME; details: 100 μg/mL, 37° C., 0-120 min, FIG. 4
Method: as §1, §2
At desired time points, 100 μl, of incubation mixture was transferred to the stop reagent to precipitate proteins. […] The samples were analyzed by LC-MS/MS.
Slope was calculated by plotting the natural logarithm of the percentage or remaining amount of test compounds and time, and T12 was calculated in accordance with the following formula. […]

[3] = tested on: pancreatic islets; assay: Glucose-stimulated insulin secretion (GSIS) of isolated islets; assay type: cell-based, Sprague-Dawley (SD) rats; details: rat islets, 12.0 mM glucose, 10 μg/mL peptide (GLP-1 100 nM), 60 min, FIG. 8
Method: The pancreases were procured from male adult Sprague-Dawley (SD) rats. After 7 days acclimation, the animals were sacrificed by cervical dislocation and the entire pancreas was removed and digested with collagenase to isolate islets. After digestion, islets were maintained at 37° C. in RPMI 1640 (Carlsbad, Calif., USA) pH 7.4, containing 10% (v/v) fetal calf serum, 1% penicillin/streptomycin, and 10 mM glucose in a humid atmosphere (5% CO2/95% O2), without the addition of any compound (control), or with the addition of 100 nM glucagon like peptide-1 (GLP-1); or 10 μg/mL Peptide 1, Peptide 12, or Peptide 16, as summarized in Table 4 below. Cultured islets were rinsed in Krebs-Ringer bicarbonate buffer (KRB), pH 7.4, previously gassed with a mixture CO2/O2 (5/95%), and pre-incubated in 1.0 ml KRB containing 0.5% (w/v) BSA and 1.5 mM glucose at 37° C. for 45 min. After this period, groups of 5 islets were incubated in 0.6 ml KRB with the addition of 1.5 or 12.0 mM glucose, with or without the addition of peptides for 60 min. At the end of the incubation period, aliquots of the medium were collected for insulin quantitation.

[4] = Pharmacokinetics in rat; assay type: in vivo, Sprague-Dawley (SD) rats; details: mouse and rat, 25 mg/kg
Method: After 7 days acclimation, male Sprague-Dawley (SD) rats weighing 210-250 g, or male C57BL/6 mice, weighing 19-24 g, in good health were used in the study. Peptide 1, Peptide 12 and Peptide 16 were dissolved in sterile normal saline and then they were injected via subcutaneous (sc) bolus or intravenous (iv) bolus at the dose level of 25 mg/kg. Three animals in each group were used for blood collection at the time point of 5 min, 15 min, 30 min, 1 h, 2 h, 4 h, 6 h, 8 h and 24 h post-dose. Blood samples (approximately 400 μL) were collected and placed into tubes containing EDTA-K2 and centrifuged at 8000 rpm for 6 minutes at 4° C. to separate plasma front the samples. The resulting plasma was stored frozen at −80° C. until being analyzed. Plasma concentrations of peptides were determined using tandem mass spectrometry (LC-MS/MS) analysis. A non-compartmental module of WinNonlin® Professional 5.2 (Pharsight; St. Louis, Mo.), was used to calculate PK parameters. The abbreviation AUC(0-t) represents area under the curve front the time of dosing to the time of the last observation, the AUC(0-∞) represents area under the curve from the time of dosing to infinity, and the Cmax represents maximum concentration detected.

PK properties (AUC and Cmax) compared to INGAP-PP [4]: marked improved PK properties
Substance: Ac-IGLHDPSHGTLPNGS-OH [Peptide 16, Ac-IGLHDPSHGTLPNGS-OH]
stability in mouse plasma [1]: good stability in mouse plasma and were more stable than INGAP-PP
stability in human plasma [2]: good stability in human plasma and were significantly more stable than INGAP-PP
glucose-stimulated insulin secretion versus islets without peptides [3]: released significantly more insulin
